Data on two compounds can be found in patent US9549886B2, “Personal care formulations containing alkyl ketal esters and methods of manufacture” (SEGETIS, INC., priority 2010, dated 2017).

The nature of series [1]: Clarity of model hand sanitizer (isopropyl myristate / water / ethanol / ethyl-LGK). In kind it is physicochemical. The text has this: Thus, a formulation with 30 parts isopropyl myristate, 10 parts water, and 60 parts ethanol was cloudy. […] In either case, the potential for dryness increases due to reduction in emollient or increase in ethanol. […] This formulation retained the balance of emollient and ethanol, while still providing hydration through the presence of water. Alternatively, a portion of the ethanol can be replaced with Et-LGK without sacrificing clarity, even at higher water levels. […] This reduced ethanol formulation was less drying.

Series [2] is described as follows: Solubility of oxidation dye intermediates in hair dye bases (saturated solutions, UV-Vis). Particulars: 27° C., 10 minutes.
Series [3] can be described thus: Solubility of active agents in neat alkyl ketal esters (dissolution, storage at room temperature).

Values joined by “and” are separate entries in the source; they are usually repeats but may differ in a detail not shown here. Equal values may be shown once.

`CCCCCCCCCCCCCC(=O)OC(C)C` [isopropyl myristate]: the clarity of formulation entry in series [1] (27 parts isopropyl myristate, 9 parts of water, 9 parts of ethyl-LGK and 55 parts of ethanol) was “clear solution”; in series [1] (30 parts isopropyl myristate, 5 parts water, 5 parts ethyl-LGK and 60 parts ethanol), “clear solution”; in series [1] (30 parts isopropyl myristate, 10 parts water, 60 parts ethanol), “cloudy”; in series [1] (no ketal, emollient level dropped to 22% at the same water level, or to 27% with an increase in ethanol), “clear solution”.
Consider `Nc1ccc(N)cc1` [p-phenylenediamine], for which the “Average Solubility % wt./wt., column 26B” value in series [2] (hair dye base with 7.00% Et-LGK, pH 8.5) is recorded as 0.07 % wt./wt. Further, the “Average Solubility % wt./wt., column 26A” value in series [2] (hair dye base with 7.00% Et-LGK, pH 10.2) amounted to 0.07 % wt./wt. Besides, the “Average Solubility % wt./wt., column 27B” value in series [2] (hair dye base with 7.00% Et-LPK, pH 8.5) is below 0.01 % wt./wt. Moreover, the “Average Solubility % wt./wt., second column headed 26A” value in series [2] (hair dye base with 7.00% Et-LPK, pH 10.2) was found to be 0 % wt./wt. The “% solids dissolved in Bu-LGK with heat, no precipitation” value in series [3] (solvent Bu-LGK, dissolved at 50-80° C., still soluble after 24 hours at room temperature where stated) is listed as 5%. The “% solids in Bu-LGK that did not (completely) dissolve” value in series [3] (solvent Bu-LGK, insoluble, dispersion or partially dissolved) turned out to be 25%. In series [3] (solvent Et-LGK, dissolved at 35-80° C., still soluble after storage at room temperature (24 hours to 5 days) where stated), the “% solids dissolved in Et-LGK with heat, no precipitation” value is listed as 5%. Also, the “% solids in Et-LPK that did not (completely) dissolve or precipitated at room temperature” value in series [3] (solvent Et-LPK, insoluble, not completely dissolved or precipitated on room temperature storage) is 5% and 1%.
